# Data reported in US8012499B2, “Anthranilamides for controlling invertebrate pests” (E.I. du Pont de Nemours and Company, priority 2005, dated 2011).
row,Structure (SMILES),melting point
1,"CCN(CC)C(=O)C(=O)c1cc(C)cc(C)c1NC(=O)c1cc(C(F)(F)F)nn1-c1ncccc1Cl [Example 2, 1-(3-chloro-2-pyridinyl)-N-[2-[(diethylamino)oxoacetyl]-4,6-dimethylphenyl]-3-(trifluoromethyl)-1H-pyrazole-5-carboxamide]",223 to 227 °C
2,"C/N=C(/C(=O)NC)c1cc(Cl)cc(C)c1NC(=O)c1cc(Br)nn1-c1ncccc1Cl [Example 6, 3-bromo-N-[4-chloro-2-methyl-6-[(1E)-2-(methylamino)-1-(methylimino)-2-oxoethyl]phenyl]-1-(3-chloro-2-pyridinyl)-1H-pyrazole-5-carboxamide]",234 °C (dec.)
3,"CNC(=O)C(=O)c1cc(Cl)cc(C)c1NC(=O)c1cc(Br)nn1-c1ncccc1Cl [Example 7, 3-bromo-N-[4-chloro-2-methyl-6-[(methylamino)oxoacetyl]phenyl]-1-(3-chloro-2-pyridinyl)-1H-pyrazole-5-carboxamide]",247 °C
